Measured values published in patent publication US11739102B2, “Fused pyrimidine compounds as KRAS inhibitors” (Incyte Corporation, priority 2020, dated 2023).

Experiments:
KRAS G12C = KRAS G12C (Homo sapiens, UniProt P01116, G12C); test: GDP-GTP exchange assay (bodipy-GDP/GppNHp, SOS1); format: biochemical; details: bodipy-loaded KRAS G12C 2.5 nM, SOS1 150 nM, 2 hours pre-incubation with inhibitor; read-out: G12C_exchange IC50
Method: The inhibitor potency of the exemplified compounds was determined in a fluorescence based guanine nucleotide exchange assay, which measures the exchange of bodipy-GDP (fluorescently labeled GDP) for GppNHp (Non-hydrolyzable GTP analog) to generate the active state of KRAS in the presence of SOS1 (guanine nucleotide exchange factor). Inhibitors were serially diluted in DMSO and a volume of 0.1 μL was transferred to the wells of a black low volume 384-well plate. 5 μL/well volume of bodipy-loaded KRAS G12C diluted to 5 nM in assay buffer (25 mM Hepes pH 7.5, 50 mM NaCl, 10 mM MgCl2 and 0.01% Brij-35) was added to the plate and pre-incubated with inhibitor for 2 hours at ambient temperature. Appropriate controls (enzyme with no inhibitor or with a G12C inhibitor (AMG-510)) were included on the plate. The exchange was initiated by the addition of a 5 μL/well volume containing 1 mM GppNHp and 300 nM SOS1 in assay buffer. The 10 μL/well reaction concentration of the bodipy-loaded KRAS G12C, GppNHp, and SOS1 were 2.5 nM, 500 uM, and 150 nM, respectively. The reaction plates were incubated at ambient temperature for 2 hours, a time estimated for complete GDP-GTP exchange in the absence of inhibitor. For the KRAS G12D and G12V mutants, similar guanine nucleotide exchange assays were used with 2.5 nM as final concentration for the bodipy loaded KRAS proteins and with 4 hours and 3 hours incubation after adding GppNHp-SOS1 mixture for G12D and G12V respectively. A cyclic peptide described to selectively bind G12D mutant (Sakamoto et al., BBRC 484.3 (2017), 605-611) or internal compounds with confirmed binding were used as positive controls in the assay plates. Fluorescence intensities were measured on a PheraStar plate reader instrument (BMG Labtech) with excitation at 485 nm and emission at 520 nm.
Either GraphPad prism or XLfit was used to analyze the data. The IC50 values were derived by fitting the data to a four parameter logistic equation producing a sigmoidal dose-response curve with a variable Hill coefficient. Prism equation: Y=Bottom+(Top−Bottom)/(1+10^((Log IC50−X)*Hill slope)); XLfit equation: Y=(A+((B−A)/(1+((X/C)^D)))) where X is the logarithm of inhibitor concentration and Y is the response.

[1] = tested on: MIA PaCa-2 (KRAS G12C) cells; test: Cellular pERK HTRF assay (KRAS_G12C pERK assay); format: cell-based; details: Homo sapiens, cells incubated with compound 4 hours, read-out: G12C_pERK IC50
Method: MIA PaCa-2 (KRAS G12C; ATCC® CRL-1420), A427 (KRAS G12D; ATCC® HTB53), HPAF-II (KRAS G12D; ATCC® CRL-1997) and NCI-H838 (KRAS WT; ATCC® CRL-5844) cells are purchased from ATCC and maintained in RPMI 1640 media supplemented with 10% FBS (Gibco/Life Technologies). The cells are plated at 5000 cells per well (8 uL) into Greiner 384-well low volume, flat-bottom, tissue culture treated white plates and incubated overnight at 37° C., 5% CO2. The next morning, test compound stock solutions are diluted in media at 3× the final concentration, and 4 uL are added to the cells. The plate is mixed by gentle rotation for 30 seconds (250 rpm) at room temperature. The cells are incubated with the KRAS G12C and G12D compounds for 4 hours or 2 hours respectively at 37° C., 5% CO2.
4 uL of 4× lysis buffer with blocking reagent (1:25) (Cisbio) are added to each well and plates are rotated gently (300 rpm) for 30 minutes at room temperature. 4 uL per well of Cisbio anti Phospho-ERK 1/2 d2 is mixed with anti Phospho-ERK 1/2 Cryptate (1:1) are added to each well, mixed by rotation and incubated overnight in the dark at room temperature. Plates are read on the Pherastar plate reader at 665 nm and 620 nm wavelengths. IC50 determination is performed by fitting the curve of inhibitor percent inhibition versus the log of the inhibitor concentration using the GraphPad Prism 7 software.

KRAS G12C, sequence (P01116 1-188 isoform P01116-2 G12C): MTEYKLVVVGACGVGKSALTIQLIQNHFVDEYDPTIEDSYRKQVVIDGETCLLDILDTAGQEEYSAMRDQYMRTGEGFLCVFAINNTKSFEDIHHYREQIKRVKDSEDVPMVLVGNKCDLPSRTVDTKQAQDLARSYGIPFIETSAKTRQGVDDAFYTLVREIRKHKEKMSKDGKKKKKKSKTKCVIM

Row | SMILES | IC50 (KRAS G12C) [µM] | IC50 [1] [µM]
1 | C=Cc1ncc2n1CCN(c1nc(OCCCN3CCOCC3)nc3c1CCN(c1cccc4cccc(Cl)c14)C3)C2 [Example 1, 4-(3-((7-(8-Chloronaphthalen-1-yl)-4-(3-vinyl-5,6-dihydroimidazo[1,5-a]pyrazin-7(8H)-yl)-5,6,7,8-tetrahydropyrido[3,4-d]pyrimidin-2-yl)oxy)propyl)morpholine] | 0.1 to 1 | 1 to 5
2 | C=Cc1ncc2n1CCN(c1nc(OCCCN3CCOCC3)nc3c1CCN(c1cccc4ccccc14)C3)C2 [Example 2, 4-(3-((7-(Naphthalen-1-yl)-4-(3-vinyl-5,6-dihydroimidazo[1,5-a]pyrazin-7(8H)-yl)-5,6,7,8-tetrahydropyrido[3,4-d]pyrimidin-2-yl)oxy)propyl)morpholine] | ≤ 0.1 | 1 to 5
3 | C=Cc1ncc2n1CCN(c1nc(OC[C@@H]3CCCN3C)nc3c1CCN(c1cccc4ccccc14)C3)C2 [Example 3, (S)-2-((1-Methylpyrrolidin-2-yl)methoxy)-7-(naphthalen-1-yl)-4-(3-vinyl-5,6-dihydroimidazo[1,5-a]pyrazin-7(8H)-yl)-5,6,7,8-tetrahydropyrido[3,4-d]pyrimidine] | ≤ 0.1 | 1 to 5
4 | C=Cc1ncc2n1CCN(c1nc(OC[C@@H]3CCCN3C)nc3c1CCN(c1cccc4cccc(Cl)c14)C3)C2 [Example 4, (S)-7-(8-Chloronaphthalen-1-yl)-2-((1-methylpyrrolidin-2-yl)methoxy)-4-(3-vinyl-5,6-dihydroimidazo[1,5-a]pyrazin-7(8H)-yl)-5,6,7,8-tetrahydropyrido[3,4-d]pyrimidine] | 0.1 to 1 | 1 to 5
5 | C=Cc1ncc2n1CCN(c1nc(OCCCN3CCCCC3)nc3c1CCN(c1cccc4cccc(Cl)c14)C3)C2 [Example 5, 7-(8-Chloronaphthalen-1-yl)-2-(3-(piperidin-1-yl)propoxy)-4-(3-vinyl-5,6-dihydroimidazo[1,5-a]pyrazin-7(8H)-yl)-5,6,7,8-tetrahydropyrido[3,4-d]pyrimidine] | 0.1 to 1 | 1 to 5
6 | C=Cc1ncc2n1CCN(c1nc(OCC3CCCN(C)C3)nc3c1CCN(c1cccc4cccc(Cl)c14)C3)C2 (centres unmarked) [Example 6, 7-(8-Chloronaphthalen-1-yl)-2-((1-methylpiperidin-3-yl)methoxy)-4-(3-vinyl-5,6-dihydroimidazo[1,5-a]pyrazin-7(8H)-yl)-5,6,7,8-tetrahydropyrido[3,4-d]pyrimidine] | 0.1 to 1 | 1 to 5
7 | C=Cc1ncc2n1CCN(c1nc(OCC3CCCCN3C)nc3c1CCN(c1cccc4cccc(Cl)c14)C3)C2 (centres unmarked) [Example 7, 7-(8-Chloronaphthalen-1-yl)-2-((1-methylpiperidin-2-yl)methoxy)-4-(3-vinyl-5,6-dihydroimidazo[1,5-a]pyrazin-7(8H)-yl)-5,6,7,8-tetrahydropyrido[3,4-d]pyrimidine] | 0.1 to 1 | –
8 | C=Cc1ncc2n1CCN(c1nc(OCCC3CCCN3C)nc3c1CCN(c1cccc4cccc(Cl)c14)C3)C2 (centres unmarked) [Example 8, 7-(8-Chloronaphthalen-1-yl)-2-(2-(1-methylpyrrolidin-2-yl)ethoxy)-4-(3-vinyl-5,6-dihydroimidazo[1,5-a]pyrazin-7(8H)-yl)-5,6,7,8-tetrahydropyrido[3,4-d]pyrimidine] | 0.1 to 1 | –
9 | C=Cc1ncc2n1CCN(c1nc(OC[C@@H]3CCCN3C)nc3c1CCN(c1cc(O)cc4ccccc14)C3)C2 [Example 9, (S)-4-(2-((1-Methylpyrrolidin-2-yl)methoxy)-4-(3-vinyl-5,6-dihydroimidazo[1,5-a]pyrazin-7(8H)-yl)-5,8-dihydropyrido[3,4-d]pyrimidin-7(6H)-yl)naphthalen-2-ol] | 0.1 to 1 | 1 to 5
10 | C=Cc1ncc2n1CCN(c1nc(OC[C@@H]3CCCN3Cc3ccccc3)nc3c1CCN(c1cccc4cccc(Cl)c14)C3)C2 [Example 10, (S)-2-((1-Benzylpyrrolidin-2-yl)methoxy)-7-(8-chloronaphthalen-1-yl)-4-(3-vinyl-5,6-dihydroimidazo[1,5-a]pyrazin-7(8H)-yl)-5,6,7,8-tetrahydropyrido[3,4-d]pyrimidine] | 0.1 to 1 | –
11 | C=Cc1ncc2n1CCN(c1nc(OC[C@H]3CCCN3C)nc3c1CCN(c1cc(O)cc4ccccc14)C3)C2 [Example 11, (R)-4-(2-((1-Methylpyrrolidin-2-yl)methoxy)-4-(3-vinyl-5,6-dihydroimidazo[1,5-a]pyrazin-7(8H)-yl)-5,8-dihydropyrido[3,4-d]pyrimidin-7(6H)-yl)naphthalen-2-ol] | 0.1 to 1 | 1 to 5
12 | C=Cc1ncc2n1CCN(c1nc(OCC3(C#N)CCCC3)nc3c1CCN(c1cccc4cccc(Cl)c14)C3)C2 [Example 12, 1-(((7-(8-Chloronaphthalen-1-yl)-4-(3-vinyl-5,6-dihydroimidazo[1,5-a]pyrazin-7(8H)-yl)-5,6,7,8-tetrahydropyrido[3,4-d]pyrimidin-2-yl)oxy)methyl)cyclopentane-1-carbonitrile] | 1 to 5 | –
13 | C=Cc1ncc2n1CCN(c1nc(OCCCN3CCOCC3)nc3c1CCN(c1cc(O)cc4ccccc14)C3)C2 [Example 13, 4-(2-(3-Morpholinopropoxy)-4-(3-vinyl-5,6-dihydroimidazo[1,5-a]pyrazin-7(8H)-yl)-5,8-dihydropyrido[3,4-d]pyrimidin-7(6H)-yl)naphthalen-2-ol] | 1 to 5 | –
14 | C=Cc1cnc2n1CCN(c1nc(OC[C@@H]3CCCN3C)nc3c1CCN(c1cccc4cccc(Cl)c14)C3)C2 [Example 14, (S)-7-(8-Chloronaphthalen-1-yl)-2-((1-methylpyrrolidin-2-yl)methoxy)-4-(3-vinyl-5,6-dihydroimidazo[1,2-a]pyrazin-7(8H)-yl)-5,6,7,8-tetrahydropyrido[3,4-d]pyrimidine] | 1 to 5 | –
15 | C=Cc1cnc2n1CCN(c1nc(OCCCN3CCOCC3)nc3c1CCN(c1cccc4cccc(Cl)c14)C3)C2 [Example 15, 4-(3-((7-(8-Chloronaphthalen-1-yl)-4-(3-vinyl-5,6-dihydroimidazo[1,2-a]pyrazin-7(8H)-yl)-5,6,7,8-tetrahydropyrido[3,4-d]pyrimidin-2-yl)oxy)propyl)morpholine] | 1 to 5 | –
